From ChEMBL document CHEMBL2331204, “Fluorinated N,N'-diarylureas as AMPK activators” (Bioorg Med Chem Lett, 2013)
The source made the active and inactive calls. The rule behind the calls is not given here.

Experiments:
[1] = biological target: 5'-AMP-activated protein kinase catalytic subunit alpha-1 (Homo sapiens) (UniProt Q13131); test: Activation of AMPKalpha in human LS 174T cells assessed as phosphorylation at T172 at 1 to 3 uM by Western blotting analysis relative to urea-3,4-diCl; assay type: cell-based; conditions: LS174T
Sequence of 5'-AMP-activated protein kinase catalytic subunit alpha-1 (Homo sapiens) (Q13131 whole entry, looked up): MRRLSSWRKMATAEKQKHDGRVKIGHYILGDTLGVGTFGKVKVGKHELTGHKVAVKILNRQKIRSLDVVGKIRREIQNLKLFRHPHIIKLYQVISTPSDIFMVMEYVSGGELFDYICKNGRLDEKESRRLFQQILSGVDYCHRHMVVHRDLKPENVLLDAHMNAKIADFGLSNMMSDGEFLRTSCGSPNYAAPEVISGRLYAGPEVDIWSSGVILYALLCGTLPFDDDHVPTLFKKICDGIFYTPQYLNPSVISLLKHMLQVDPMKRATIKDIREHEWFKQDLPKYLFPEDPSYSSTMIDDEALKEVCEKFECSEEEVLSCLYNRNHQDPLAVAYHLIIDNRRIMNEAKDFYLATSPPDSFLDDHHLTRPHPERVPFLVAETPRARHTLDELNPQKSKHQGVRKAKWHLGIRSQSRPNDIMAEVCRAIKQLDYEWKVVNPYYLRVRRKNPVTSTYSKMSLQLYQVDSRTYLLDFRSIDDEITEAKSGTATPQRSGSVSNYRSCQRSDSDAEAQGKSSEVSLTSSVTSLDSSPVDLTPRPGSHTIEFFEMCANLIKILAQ

LS174T [2] = test: Inhibition of p70S6K phosphorylation in human LS 174T cells by Western blotting analysis; assay type: cell-based
LS174T [3] = test: Activation of AKT in human LS 174T cells assessed as phosphorylation at Ser473 at 3 uM by Western blotting analysis; assay type: cell-based
LS174T [4] = test: Inhibition of p70S6K in human LS 174T cells assessed as decrease in S6 phosphorylation by Western blotting analysis; assay type: cell-based
[5] = biological target: 5'-AMP-activated protein kinase catalytic subunit alpha-1 (Homo sapiens) (UniProt Q13131); test: Activation of AMPKalpha in human LS 174T cells assessed as phosphorylation at T172 at 1 to 3 uM by Western blotting analysis; assay type: cell-based; conditions: LS174T
SW480 = test: Cytotoxicity against human SW480 cells assessed as growth inhibition after 2 to 4 days; assay type: functional, cell-based
LS174T [6] = test: Cytotoxicity against human LS 174T cells assessed as growth inhibition after 2 to 4 days; assay type: functional, cell-based

SMILES	fold change (FC) [1]	other results
O=C(Nc1ccc(OC(F)(F)F)cc1)Nc1ccc(C(F)(F)F)cc1	2.37	–
O=C(Nc1ccc(SC(F)(F)F)cc1)Nc1ccc(F)c(Cl)c1	1.05	–
N#Cc1cc(NC(=O)Nc2ccc(SC(F)(F)F)cc2)ccc1F	0.96	–
O=C(Nc1ccc(SC(F)(F)F)cc1)Nc1cc(F)cc(F)c1	1.14	–
O=C(Nc1ccc(SC(F)(F)F)cc1)Nc1ccc(F)c(F)c1	1.11	–
O=C(Nc1ccc(C(F)(F)F)cc1)Nc1cccc(SC(F)(F)F)c1	2.16	–
O=C(Nc1ccc(SC(F)(F)F)cc1)Nc1cc(Cl)c(Cl)c(Cl)c1	2.32	–
O=C(Nc1ccc(SC(F)(F)F)cc1)Nc1cc(Cl)cc(Cl)c1	1.59	–
O=C(Nc1cc(F)cc(F)c1)Nc1cccc(SC(F)(F)F)c1	1.83	–
O=C(Nc1ccc(SC(F)(F)F)cc1)Nc1ccc(Cl)c(Cl)c1	–	inhibition (LS174T [2]): Active; Activity (LS174T [3]): inactive; inhibition (LS174T [4]): Active; Activity [5]: Active; growth inhibition (GI) (SW480): Active; growth inhibition (GI) (LS174T [6]): Active
O=C(Nc1cc(Cl)cc(Cl)c1)Nc1cccc(SC(F)(F)F)c1	1.94	–
O=C(Nc1ccc(SC(F)(F)F)cc1)Nc1cc(F)c(F)c(F)c1F	2.48	–
O=C(Nc1ccc(C(F)(F)F)cc1)Nc1cc(F)c(F)c(F)c1	4	–
O=C(Nc1ccc(OC(F)(F)F)cc1)Nc1cc(F)cc(F)c1	1.44	–
O=C(Nc1ccc(SC(F)(F)F)cc1)Nc1cc(F)c(F)cc1F	1.21	–
O=C(Nc1ccc(SC(F)(F)F)cc1)Nc1c(F)c(F)c(C(=O)O)c(F)c1F	0.86	–

SMILES	fold change (FC) [1]	other results
O=C(Nc1ccc(Cl)cc1)Nc1ccc(SC(F)(F)F)cc1	0.71	–
O=C(Nc1ccc(SC(F)(F)F)cc1)Nc1ccc(F)c(C(F)(F)F)c1	1.52	–
O=C(Nc1ccc(SC(F)(F)F)cc1)Nc1ccc(C(F)(F)F)cc1	1.19	–
O=C(Nc1ccc(OC(F)(F)F)cc1)Nc1cc(F)c(F)c(F)c1F	0.8	–
O=C(Nc1ccc(OC(F)(F)F)cc1)Nc1cc(Cl)c(Cl)c(Cl)c1	0.96	–
O=C(Nc1ccc(SC(F)(F)F)cc1)Nc1cccc(Cl)c1F	0.72	–
N#Cc1ccc(NC(=O)Nc2ccc(SC(F)(F)F)cc2)cc1	1.05	–
O=C(Nc1ccc(SC(F)(F)F)cc1)Nc1cccc(F)c1	0.74	–
O=C(Nc1ccc(SC(F)(F)F)cc1)Nc1ccc(SC(F)(F)F)c(Cl)c1	0.93	–
O=C(Nc1ccc(OC(F)(F)F)cc1)Nc1cc(Cl)cc(Cl)c1	0.82	–
O=C(Nc1ccc(SC(F)(F)F)cc1)Nc1cc(F)c(F)c(F)c1	2.02	growth inhibition (GI) (SW480): Active; growth inhibition (GI) (LS174T [6]): Active
O=C(Nc1ccc(OC(F)(F)F)cc1)Nc1cc(F)c(F)c(F)c1	0.99	–
O=C(Nc1ccc(OC(F)(F)F)cc1)Nc1ccc(SC(F)(F)F)c(Cl)c1	2.6	–
CNC(=O)c1cc(Oc2ccc(NC(=O)Nc3ccc(Cl)c(C(F)(F)F)c3)cc2)ccn1	–	inhibition (LS174T [2]): Active; inhibition (LS174T [4]): Active; Activity [5]: inactive
O=C(Nc1ccc(SC(F)(F)F)cc1)Nc1ccc(Cl)c(C(F)(F)F)c1	1.64	–
